In EP2313424B1, “ANIONIC PREGNANE COMPOUNDS, METHOD FOR THEIR PRODUCING AND USE OF THEM” (Ústav organické chemie a biochemie Akademie ved Ceské …, priority 2008, dated 2010):
Read-outs that look alike come from different tables or passages of the source.

Test system: NMDA receptor
Assay: Whole-cell voltage-clamp recording of NMDA-induced currents in cultured hippocampal neurons
Type: cell-based, rats
Settings: for mean inhibitory effect on NMDA-induced currents: 100 µM steroid, responses elicited by 100 µM NMDA; for IC50: estimated from relative inhibition at 100 µM steroid with the logistic equation, apparent Hill coefficient 1.2, 100 µM NMDA
[1] = cultured hippocampal neurons, holding potential -60 mV
[2] = relative degree of inhibition by 100 µM steroid of current responses induced by fast application of 100 µM NMDA, cultured hippocampal neurons, holding potential -60 mV

CC(=O)O[C@@H]1C[C@H]2C[C@H](OS(=O)(=O)[O-])CC[C@]2(C)[C@H]2CC[C@]3(C)[C@@H](C(C)=O)CC[C@H]3[C@H]12.[Na+] [Example 5, 20-Oxo-5α-pregnan-3α,7α-diyl 3-Sulfate 7-Acetate Sodium Salt]
mean inhibitory effect on NMDA-induced currents [1]: 17%

20-Oxo-5β-pregnan-3α,7α-diyl 3-Sulfate 7-Acetate Pyridinium Salt [Example 13]
IC50 (cultured hippocampal neurons): 186 µM | Inhibition (X) [2]: 34.1

20-Oxo-5β-pregnane-3α,7α-diyl 3-Sulfate 7-Nicotinate Pyridinium Salt [Example 19]
IC50 (cultured hippocampal neurons): 116 µM | Inhibition (X) [2]: 46.9

CC(=O)O[C@@H]1C[C@H]2C[C@H](OC(=O)CCC(=O)O)CC[C@]2(C)[C@H]2CC[C@]3(C)[C@@H](C(C)=O)CC[C@H]3[C@H]12 [Example 3, 20-Oxo-5α-pregnane-3α,7α-diyl 3-Hemisuccinate 7-Acetate]
IC50 (cultured hippocampal neurons): 384 µM | Inhibition (X) [2]: 17.4

20-Oxo-5α-pregnane-3α,7α-diyl 3-Sulfate 7-Nicotinate Pyridinium Salt [Example 10]
IC50 (cultured hippocampal neurons): 154 µM | Inhibition (X) [2]: 37.8

CC(=O)O[C@@H]1C[C@@H]2C[C@H](OC(=O)CCC(=O)O)CC[C@]2(C)[C@H]2CC[C@]3(C)[C@@H](C(C)=O)CC[C@H]3[C@H]12 [Example 12, 20-Oxo-5β-pregnane-3α,7α-diyl 3-Hemisuccinate 7-Acetate]
IC50 (cultured hippocampal neurons): 300 µM | Inhibition (X) [2]: 21.4

pregnanolone sulfate [reference compound]
mean inhibitory effect on NMDA-induced currents [1]: 71.3 ± 5.0% | mean inhibitory effect on NMDA-induced currents (cultured hippocampal neurons, holding potential -60 mV, listed as 5β-pregnenolone sulfate): 71%

20-Oxo-5α-pregnane-3α,7α-diyl 3-Sulfate 7-Acetate Pyridinium Salt [Example 4]
Inhibition (X): 35.2 | IC50 (cultured hippocampal neurons): 167 µM
